The text below walks through data of patent publication US20210315893A1 (Galapagos NV, priority 2017, published 2021).

Assay [1] addresses T1, human GPCR sphingosine 1-phosphate receptor 5 (Homo sapiens, UniProt Q9H228).
T1 construct: host or cells: CHO
The experiment in a line: S1PR5 selectivity Ca2+ flux assay (antagonist readout). The format is cell-based. To be noted: CHO cells overexpressing human S1PR5 and Gq, agonist at EC80 (20 nM), read-out: S1P5 EC50 (nM), S1P5 antagonist EC50. The method, boiled down:
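Antagonist readout: after 15 min compound preincubation at 37° C, human S1PR5/Gq CHO cells loaded with Fluo 8 dye received an EC80 challenge of S1PR5-specific agonist, and fluorescence was recorded for 3 min. Maximal-over-background ratios, normalized as % inhibition, gave IC50 by logistic fit.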

In the next assay the target is T2, S1PR2 (Homo sapiens, UniProt O95136).
T2 construct: expressed in transfected cells
The experiment in a line: S1PR2 binding assay (competition with radioactively labeled S1P, SpA). To be noted: membranes from stable cell line over expressing S1PR2, SpA beads; read-out: S1P2 EC50 (nM), S1PR2 binding EC50. The method in brief: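 Scintillation proximity read-out after 2 h room-temperature incubation of compound, [3H]S1P and S1PR2-overexpressing cell membranes on WGA-coated beads. Buffer: 20 mM Tris pH 7.5, 100 mM NaCl, 10 mM MgCl2, 1 mM Na3VO4, 0.4% fatty-acid-free BSA; plates counted immediately after centrifugation.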

For assay [2], the target named is T3, human GPCR sphingosine 1-phosphate receptor 2 (Homo sapiens, UniProt O95136).
T3 construct: host or cells: CHO
The experiment in a line: S1PR2 antagonist Ca2+ flux assay. The format is cell-based. Particulars: antagonist mode, CHO-S1PR2 cells, S1P at EC80, Ca2+ fluorescence; read-out: S1P2 EC50 (nM), S1P2 antagonist EC50. The method in brief:
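Antagonist mode: 15 min after compound addition, S1P (EC80) stimulates Fluo8-loaded, 1 h-starved CHO-S1PR2 cells, Ca2+ read over 3 min; a prior 3-min read checks compound agonism. EC50 from peak/baseline fluorescence ratio, normalised versus vehicle and S1P EC50 (antagonist) or EC100 (agonist).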

Assay [3] has as its target T4, human GPCR sphingosine 1-phosphate receptor 1 (Homo sapiens, UniProt P21453).
T4 construct: host or cells: CHO
The experiment in a line: S1PR1 selectivity Ca2+ flux assay (antagonist readout). The format is cell-based. To be noted: antagonist readout, CHO cells overexpressing human S1PR1 and Gq, S1P at EC80 (6 nM); read-out: S1P1 EC50 (nM), S1P1 antagonist EC50. The method, boiled down:
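Antagonist mode: S1P challenge follows 15 min compound preincubation at 37 °C. Cells are CHO stably expressing human S1PR1, serum-starved 1 h (0.1% FAF BSA), loaded with Fluo 8. Peak-over-baseline fluorescence ratio is normalized to positive/negative controls; IC50 from logistic curve fit.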

Assay [4] deals with HFL-1 cells. The experiment in a line: IL-8 production assay (S1P induced IL-8). In kind it is cell-based. Particulars: Homo sapiens, HFL1; S1P (1 μM) induced IL-8 in HFL-1 cells, starvation medium without HSA; read-out: IL8 EC50. The method, boiled down:
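HFL-1 fibroblasts in low-serum medium were pretreated 1 h with a 10-point 1/3 series of compound starting at 30 μM (0.3% DMSO).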

Assay [5] deals with HFL-1 cells. The experiment in a line: IL8 assay in the presence of Human Serum Albumin. To be noted: HFL1, read-out: HSA IL8 EC50.

Structures are written as SMILES.

T4 sequence (P21453 whole entry): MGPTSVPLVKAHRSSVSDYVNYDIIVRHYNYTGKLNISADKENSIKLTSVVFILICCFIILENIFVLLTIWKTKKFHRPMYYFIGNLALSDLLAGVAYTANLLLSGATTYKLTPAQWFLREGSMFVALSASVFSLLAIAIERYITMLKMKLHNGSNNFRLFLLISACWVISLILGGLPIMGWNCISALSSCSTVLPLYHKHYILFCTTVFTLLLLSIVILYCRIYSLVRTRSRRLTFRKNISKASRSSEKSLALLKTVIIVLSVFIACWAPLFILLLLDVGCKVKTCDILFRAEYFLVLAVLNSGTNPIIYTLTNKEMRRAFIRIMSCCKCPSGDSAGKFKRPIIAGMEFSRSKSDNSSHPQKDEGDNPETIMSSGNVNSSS
T3 sequence (O95136 whole entry): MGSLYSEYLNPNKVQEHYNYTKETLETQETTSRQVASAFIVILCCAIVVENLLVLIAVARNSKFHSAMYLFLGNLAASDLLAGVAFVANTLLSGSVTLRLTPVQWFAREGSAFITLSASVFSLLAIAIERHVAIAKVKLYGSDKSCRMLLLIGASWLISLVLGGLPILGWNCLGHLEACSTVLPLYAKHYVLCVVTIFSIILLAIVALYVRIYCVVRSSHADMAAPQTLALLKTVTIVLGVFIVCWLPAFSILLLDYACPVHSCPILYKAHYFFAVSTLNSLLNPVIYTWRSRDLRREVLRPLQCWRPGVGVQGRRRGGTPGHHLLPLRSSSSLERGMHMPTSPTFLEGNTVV
T2 sequence (O95136 whole entry): as above
T1 sequence (Q9H228 whole entry): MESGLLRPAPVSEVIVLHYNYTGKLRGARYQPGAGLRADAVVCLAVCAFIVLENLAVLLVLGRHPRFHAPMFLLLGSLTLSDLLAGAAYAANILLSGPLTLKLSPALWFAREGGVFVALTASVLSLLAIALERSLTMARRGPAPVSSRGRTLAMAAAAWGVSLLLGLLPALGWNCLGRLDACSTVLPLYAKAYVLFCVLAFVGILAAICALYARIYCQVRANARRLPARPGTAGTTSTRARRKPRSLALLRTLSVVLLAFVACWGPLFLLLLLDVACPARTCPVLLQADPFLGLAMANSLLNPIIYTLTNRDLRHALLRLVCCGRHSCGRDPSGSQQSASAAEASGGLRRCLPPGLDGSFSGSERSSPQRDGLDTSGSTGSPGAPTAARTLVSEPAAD

As for `O=c1c2ccccc2c(Cc2nc3cc(Cl)c(OC(F)(F)F)cc3[nH]2)nn1C1CC1` [Compound 25, 4-[[5-chloro-6-(trifluoromethoxy)-1H-benzimidazol-2-yl]methyl]-2-cyclopropyl-phthalazin-1-one], the EC50 in assay [1] was found to be 4790 nM; on S1PR2 it was 565 nM; in assay [2], 218 nM; in assay [3], 4710 nM; with HFL-1 cells [4], 836 nM; with HFL-1 cells [5] it was 10000 nM.

Take `O=c1c2ccccc2c(Cc2nc3cc(Cl)c(OCC(F)F)cc3[nH]2)nn1C1CC1` [Compound 32, 4-[[5-chloro-6-(2,2-difluoroethoxy)-1H-benzimidazol-2-yl]methyl]-2-cyclopropyl-phthalazin-1-one]: the 50% effective concentration (EC50) in assay [1] was 6610 nM; on S1PR2, 245 nM; in assay [2], 19.3 nM; in assay [3], no less than 19800 nM; in the assay on HFL-1 cells [4] it was 95.7 nM; in the assay on HFL-1 cells [5] it was 2960 nM.

For `N#Cc1cc2nc(Cc3nn(C4CC4)c(=O)c4ccccc34)[nH]c2cc1OCC1CC1` [Compound 42, 6-(cyclopropylmethoxy)-2-[(3-cyclopropyl-4-oxo-phthalazin-1-yl)methyl]-1H-benzimidazole-5-carbonitrile], the EC50 in assay [1] was 19800 nM; at S1PR2, 20.6 nM; in assay [2] it was 19.7 nM; in assay [3] it was no less than 19800 nM; with HFL-1 cells [4], 30.9 nM; in the assay on HFL-1 cells [5] it was 443 nM.

As for `N#Cc1cc2[nH]c(Cn3nc(CC(=O)N4CCOCC4)c(=O)c4ccccc43)nc2cc1OCC(F)F` [Compound 49, 6-(2,2-Difluoro-ethoxy)-2-[3-(2-morpholin-4-yl-2-oxo-ethyl)-4-oxo-4H-cinnolin-1-ylmethyl]-3H-enzoimidazole-5-carbonitrile], the EC50 in assay [1] was 19800 nM; at S1PR2 it was 92.7 nM; in assay [2] it was 32.8 nM; in assay [3], no less than 19800 nM; in the assay on HFL-1 cells [4] it was 31.7 nM; in the assay with HFL-1 cells [5], 47.1 nM.

`O=C(Cc1nn(Cc2nc3cc(OCC(F)F)c(F)cc3[nH]2)c2ccccc2c1=O)N1CCOCC1` [Compound 50, 1-[5-(2,2-Difluoro-ethoxy)-6-fluoro-1H-benzoimidazol-2-ylmethyl]-3-(2-morpholin-4-yl-2-oxo-ethyl)-1H-cinnolin-4-one]: the EC50 in assay [1] was 19800 nM; at S1PR2, 267 nM; in assay [2], 195 nM; in assay [3] it was no less than 19800 nM; in the assay on HFL-1 cells [4], 246 nM; in the assay on HFL-1 cells [5], 365 nM.

For the molecule `COCCOc1cc2nc(Cc3nn(CC(=O)N4CCOCC4)c(=O)c4ccccc34)[nH]c2cc1C#N` [Compound 51, 6-(2-methoxyethoxy)-2-[[3-(2-morpholino-2-oxo-ethyl)-4-oxo-phthalazin-1-yl]methyl]-3H-benzimidazole-5-carbonitrile], the EC50 in assay [1] was 19800 nM; on S1PR2 it was 366 nM; in assay [2], 77.3 nM; in assay [3], no less than 19800 nM; in the assay with HFL-1 cells [4], 177 nM; in the assay on HFL-1 cells [5] it was 291 nM.

Consider `CC(F)(F)COc1cc2nc(Cc3nn(CC(=O)N4CCOCC4)c(=O)c4ccccc34)[nH]c2cc1C#N` [Compound 52, 6-(2,2-difluoropropoxy)-2-[[3-(2-morpholino-2-oxo-ethyl)-4-oxo-phthalazin-1-yl]methyl]-3H-benzimidazole-5-carbonitrile], for which the EC50 in assay [1] is 19800 nM; at S1PR2 it was 105 nM; in assay [2] it was 11.6 nM; in assay [3] it was no less than 19800 nM; in the assay on HFL-1 cells [4] it was 46.7 nM; with HFL-1 cells [5], 50 nM.

With `O=c1c2ccccc2c(Cc2nc3cc(Cl)c(OC(F)(F)F)cc3[nH]2)nn1CC1CCNCC1` [Compound 56, 4-[[6-chloro-5-(trifluoromethoxy)-1H-benzimidazol-2-yl]methyl]-2-(4-piperidylmethyl)phthalazin-1-one], the EC50 was 19800 nM in assay [1]; 722 nM at S1PR2; 839 nM in assay [2]; no less than 19800 nM in assay [3]; 3330 nM in the assay with HFL-1 cells [4]; 2930 nM with HFL-1 cells [5].
